Data on 2 compounds can be found in patent publication EP1701623B1, “METHODS FOR WASHING POULTRY DURING PROCESSING WITH MEDIUM CHAIN PEROXYCARBOXYLIC ACID COMPOSITIONS” (ECOLAB INC., priority 2004, dated 2005).

The test system of one assay is Bacterial Spores. Briefly: Antimicrobial activity against bacterial spores versus conventional compositions. The class given is cell-based. Particulars: 0.5 min, pH 3.32, 35%. As for the experimental part: (§1) Antimicrobial activity was determined according to two well established methods. The first method was the procedure set out in Germicidal and Detergent Sanitizing Action of Disinfectants, Official Methods of Analysis of the Association of Official Analytical Chemists, paragraph 960.09 and applicable sections, 15th Edition, 1990 (EPA Guideline 91-2). The second method was the procedure described in A.O.A.C. Use Dilution Methods, Official Methods of Analysis of the Association of Official Analytical Chemists, paragraph 955.14 and applicable sections, 15th Edition, 1990 (EPA Guideline 91-2). Briefly, antimicrobial activity of the present compositions was determined by exposing a one mL aliquot containing the target microorganism to 99 mL of the desired concentration of the test substance at the desired temperature. After the specified contact time, one mL of the test solution containing the microorganism was neutralized and enumerated for survivors.

A further assay relates to S. aureus. Briefly: Antimicrobial activity, AOAC sanitizing/use dilution suspension test. The class given is cell-based. The settings on record: Staphylococcus aureus. As for the experimental part:
as §1

Each structure is given as a SMILES string.

As to `OO` [Composition H2O2, hydrogen peroxide], the log reduction at 35 % with Bacterial Spores (40 °C, 30 sec) is 1.19; with Bacterial Spores (40 °C, 60 sec), 2.94; in the assay on Bacterial Spores (40 °C, 120 sec), more than 6.3; in the assay with Bacterial Spores (60 °C, 10 sec), 1.59; with Bacterial Spores (60 °C, 20 sec), 4.85; in the assay with Bacterial Spores (60 °C, 30 sec), 4.89. The log reduction at 35 % in the assay on Bacterial Spores (80 °C, 10 sec) was more than 6.3; in the assay with Bacterial Spores (80 °C, 20 sec), more than 6.3; in the assay with Bacterial Spores (80 °C, 30 sec) it was more than 6.3.
As to `CCCCCCCC(=O)OO` [Pure POOA Crystals, peroxyoctanoic acid], the log reduction at 5 µg/mL with S. aureus (concentration of 5 ppm and pH of ∼5, Table 25, read-out: log reductions of Staphylococcus aureus) stood at 5. For the same compound, in the assay with S. aureus (pH 6.1, pH of 6.1, 11 ppm of peroxyoctanoic acid (POOA), Table 13 (composition K), read-out: reducing S. aureus), the log reduction at 11 µg/mL is more than 7.04.
